Like-named read-outs stand apart in the source and are kept apart here.

For assay [1], the target named is T1, human recombinant Monoacylglycerol Lipase (Homo sapiens, UniProt Q99685).
T1 sequence (Q99685 1-303): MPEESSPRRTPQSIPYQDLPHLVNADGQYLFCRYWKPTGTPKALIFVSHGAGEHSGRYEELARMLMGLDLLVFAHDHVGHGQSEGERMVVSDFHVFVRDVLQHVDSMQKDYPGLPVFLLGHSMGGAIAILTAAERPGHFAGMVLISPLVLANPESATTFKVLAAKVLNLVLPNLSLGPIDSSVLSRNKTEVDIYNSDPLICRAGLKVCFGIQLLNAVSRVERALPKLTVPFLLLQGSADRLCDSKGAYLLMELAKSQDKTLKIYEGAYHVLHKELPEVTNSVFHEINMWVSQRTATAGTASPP
In words: MAGL inactivation (kinact/KI from enzyme progress curves, T=0 min protocol). The conditions noted are these: from plot of Kobs vs. compound concentration, geometric mean of 2-5 determinations (b: ≥6).

In assay [2] the target is T1, human recombinant Monoacylglycerol Lipase. In words: MAGL enzymatic assay (IC50; 7-HCA substrate added at T=0 min or T=30 min). It is filed as biochemical. Particulars: geometric mean of 2-5 determinations unless otherwise indicated.
The mark [3] stands for this setting: MAGL (T = 30 min) IC50, substrate 7-HCA added after 30 minute incubation (T=30 min).
Setting [4] is: substrate 7-HCA added immediately (T=0 min), read-out: MAGL (T = 0 min) IC50.

By IC50 is commonly meant the concentration that inhibits the measured activity by half. For `CN([C@H]1COC2(CCN(C(=O)O[C@H](CO)C(F)(F)F)CC2)C1)S(=O)(=O)CC1CC(F)(F)C1` [Example 57, (2R)-1,1,1-trifluoro-3-hydroxypropan-2-yl (3R)-3-[{[(3,3-difluorocyclobutyl)methyl]sulfonyl}(methyl)amino]-1-oxa-8-azaspiro[4.5]decane-8-carboxylate], in assay [1], the “MAGL kinact/KI” value is listed as 2770 1/s per M. For the same compound, the figures for the IC50 in assay [2] (setting [3]) and in assay [2] (setting [4]) were 13 nM and 113 nM, respectively.

In the case of `O=C(O[C@H](CO)C(F)(F)F)N1CCC2(CC1)CC(c1cc(C(F)F)ccn1)C2` [Example 78, (2R)-1,1,1-trifluoro-3-hydroxypropan-2-yl 2-[4-(difluoromethyl)pyridin-2-yl]-7-azaspiro[3.5]nonane-7-carboxylate], in assay [1], the “MAGL kinact/KI” value is on record as 75400 1/s per M. For the same compound, the results for the IC50 in assay [2] (setting [3]) and in assay [2] (setting [4]) were 1 nM and 9 nM, respectively.

Take `CN(C(=O)CC1CC1)C1CC2(CCN(C(=O)O[C@H](CO)C(F)(F)F)CC2)C1` [Example 43, (2R)-1,1,1-trifluoro-3-hydroxypropan-2-yl 2-[(cyclopropylacetyl)(methyl)amino]-7-azaspiro[3.5]nonane-7-carboxylate]: the “MAGL kinact/KI” value in assay [1] was 18500 1/s per M. Also, the IC50 in assay [2] (setting [3]) was 2 nM; in assay [2] (setting [4]), 29 nM.

With `N#Cc1ccc(C2COC3(CCN(C(=O)O[C@H](CO)C(F)(F)F)CC3)C2)nc1` (single isomer, unassigned) [Example 38], the “MAGL kinact/KI” value in assay [1] is 1610 1/s per M. Besides, the IC50 turned out to be 24 nM in assay [2] (setting [3]) and 200 nM in assay [2] (setting [4]).

In the case of `O=C(O[C@H](CO)C(F)(F)F)N1CCC2(CC1)CC(c1ccnc(C(F)F)c1)C2` [Example 80, (2R)-1,1,1-trifluoro-3-hydroxypropan-2-yl 2-[2-(difluoromethyl)pyridin-4-yl]-7-azaspiro[3.5]nonane-7-carboxylate], in assay [1], the “MAGL kinact/KI” value is on record as 46200 1/s per M. The IC50 was found to be 1 nM in assay [2] (setting [3]) and 13 nM in assay [2] (setting [4]).

As to `O=C(O[C@H](CO)C(F)(F)F)N1CCC2(CC1)CC(Oc1cccc(C(F)F)n1)C2` [Example 90, (2R)-1,1,1-trifluoro-3-hydroxypropan-2-yl 2-{[6-(difluoromethyl)pyridin-2-yl]oxy}-7-azaspiro[3.5]nonane-7-carboxylate], the “MAGL kinact/KI” value in assay [1] was 71700 1/s per M. Moreover, the IC50 worked out at 0.5 nM in assay [2] (setting [3]) and 9 nM in assay [2] (setting [4]).

In the case of `O=C(O[C@H](CO)C(F)(F)F)N1CCC2(CC1)CC(c1ccc(C(F)F)cn1)C2` [Example 48, (2R)-1,1,1-trifluoro-3-hydroxypropan-2-yl 2-[5-(difluoromethyl)pyridin-2-yl]-7-azaspiro[3.5]nonane-7-carboxylate], the “MAGL kinact/KI” value in assay [1] is reported as 26000 1/s per M. In addition, the IC50 in assay [2] (setting [3]) stood at 2 nM; in assay [2] (setting [4]), 18 nM.

`O=C(O[C@H](CO)C(F)(F)F)N1CCC2(CC1)CC(n1cc(C3CC3)cn1)C2` [Example 49, (2R)-1,1,1-trifluoro-3-hydroxypropan-2-yl 2-(4-cyclopropyl-1H-pyrazol-1-yl)-7-azaspiro[3.5]nonane-7-carboxylate]: in assay [1], the “MAGL kinact/KI” value is listed as 77400 1/s per M. Further, the results for the IC50 in assay [2] (setting [3]) and in assay [2] (setting [4]) were 1 nM and 13 nM, respectively.

Consider `O=C(O[C@H](CO)C(F)(F)F)N1CCC2(CC1)CC(n1cc(C(F)(F)F)cn1)CO2` (single isomer, unassigned) [Example 9], for which the “MAGL kinact/KI” value in assay [1] is given as 32800 1/s per M. For the same compound, the IC50 in assay [2] (setting [3]) turned out to be 3 nM; in assay [2] (setting [4]), 16 nM.

Regarding `O=C(O[C@H](CO)C(F)(F)F)N1CCC2(CC1)CC(Cn1cc(C(F)(F)F)cn1)CO2` (single isomer, unassigned) [Example 3], the “MAGL kinact/KI” value in assay [1] is listed as 10300 1/s per M. The IC50 in assay [2] (setting [3]) amounted to 7 nM; in assay [2] (setting [4]), 47 nM.

On to `O=C(O[C@H](CO)C(F)(F)F)N1CCC2(CC1)CC(n1cc(C(F)(F)F)cn1)CO2` (single isomer, unassigned) [Example 8], for which, in assay [1], the “MAGL kinact/KI” value is 2880 1/s per M. In addition, the IC50 in assay [2] (setting [3]) was determined as 16 nM; in assay [2] (setting [4]) it was 172 nM.

The record behind these values is patent US10626125B2, “1,1,1-trifluoro-3-hydroxypropan-2-yl carbamate derivatives as MAGL inhibitors” (PFIZER INC., priority 2017, dated 2020).
